Data: patent US11000516B2 (priority 2015, dated 2021)

How the values were obtained:
[1] = system: EDEN1 (clinical DENV1 isolate); assay: Antiviral effect in Vero cells, plaque assay of supernatant 48 h pi; format: cell-based
Procedure: (§1) Cells were infected with DENV strains for 1 hour at 37° C. and washed once with culture media. […] The supernatants were subjected to standard plaque assay and the EC50 values were determined using the GraphPad Prism software.
(§2) NITD008, an adenosine analog inhibitor of DENV polymerase (Yin et al., 2009) was used as a positive control.

[2] = system: S221 (mouse-adapted DENV2 strain); assay: as above; format: cell-based; conditions: S221, MOI 0.3
Procedure: as §1, §2

[3] = system: EDEN2 (clinical DENV2 isolate); assay: as above; format: cell-based; conditions: Dengue virus, DENV2, Vero
Procedure: as §1, §2

[4] = human, cited from earlier work
[5] = system: EDEN1 (clinical DENV1 isolate); assay: Ab-mediated infection of THP-1 cells with enhancing concentration of 4G2 Ab; format: cell-based; conditions: EDEN1, MOI 2, single experiment
Procedure: as §1, §2

[6] = system: S221 (mouse-adapted DENV2 strain); assay: as above; format: cell-based; conditions: S221, MOI 2, single experiment
Procedure: as §1, §2

[7] = system: EDEN2 (clinical DENV2 isolate); assay: as above; format: cell-based; conditions: EDEN2, MOI 50, single experiment
Procedure: as §1, §2

EDEN1 = assay: Non-lethal viremia mouse model; format: in vivo, mice
Procedure: (§3) Mice were inoculated i.v. with EDEN1 (7×10^7 pfu) or EDEN2 (1×10^8 pfu). […] Average viral copy numbers on day 1 and 2 were measured using mixed serum of each group. […] A P value less than 0.05 was considered significant (*P<0.05). The number of mice per group is 6. […] Average viral copy numbers on days 4 and 5 were measured using mixed serum of each group. […] The virological log reduction (VLR) from day 3 to day 6 was also shown as the mean value and standard deviations. The number of mice per group is 6.
(§4) Since dengue fever patients in general present at a clinic when viremia is at a peak level (Low et al., 2014; Nguyen et al., 2013; Tricou et al., 2010), we next compared the 2 different dosing regimens; one started at the time of infection and another started at the time of peak viremia (on day 3 pi) similar to human situation (FIG. 4A). In this experiment, we used a non-lethal viremia mouse model, which permits the tracking of viremia kinetics for a longer period of time (FIG. 1B).

EDEN2 = assay: Non-lethal viremia mouse model; format: in vivo, mice
Procedure: as §3, §4

EDEN1, EDEN2, S221 = assay: Antiviral effect in BHK-21 cells, all virus strains; format: cell-based, DENV; conditions: Dengue virus
Procedure: as §1, §2

S221 = assay: Lethal ADE infection model in AG129 mice (4G2 Ab pre-injection); format: in vivo
Procedure: AG129 mice were inoculated i.v. with EDEN1 (7×10^7 pfu), EDEN2 (1×10^8 pfu) or S221 (2×10^4 pfu) for non-lethal infection. For the ADE infection (lethal), mice were pre-injected i.p. with 50 μg (for EDEN1 and EDEN2) or 10 μg (for S221) 4G2 Ab one day prior to infection. (A) Mouse survival rate was monitored by day 10 pi. (B) Blood samples were collected on days 1-8 pi and mixed serum from each group were subjected to real-time RT-PCR to obtain the average viral genome copy numbers. (C) Serum levels of TNFα and IL-6 were measured by ELISA assay. The numbers of mice per group are 6 (EDEN1) or 5 (EDEN2 and S221).
AG129 mice were pre-injected i.p. with 50 μg (for EDEN1 and EDEN2) or 10 μg (for S221) 4G2 Ab followed by next day inoculation i.v. with EDEN1 (7×10^7 pfu), EDEN2 (1×10^8 pfu) or S221 (2×10^4 pfu). […] (A) Mouse survival rate was monitored by day 10 pi. (B) Blood samples were collected on day 1-4 pi and mixed serum from each group were subjected to real-time RT PCR to obtain the average viral genome copy numbers (left panels). […] A P value less than 0.05 was considered significant (*P<0.05). The number of mice per group is 5.
AG129 mice were pre-injected i.p. with 4G2 Ab followed by next day inoculation i.v. with EDEN1, EDEN2 or S221 as described above. […] (A) Mouse survival rate was monitored by day 10 pi. (B) Blood samples were collected on days 1-4 pi and mixed serum from each group were subjected to real-time RT PCR to obtain the average viral genome copy numbers (left panels). […] A P value less than 0.05 was considered significant (*P<0.05). The number of mice per group is 6.
AG129 mouse models of clinical DENV strains, EDEN1 and EDEN2, in addition to mouse-adapted S221 strain were developed. To increase infection level in mice, high virus titer of EDEN1 (7×10^7 pfu) and EDEN2 (1×10^8 pfu) were inoculated intravenously (iv) into AG129 mice.

[8] = system: EDEN1 (clinical DENV1 isolate); assay: Antiviral effect in HuH-7 cells, plaque assay of supernatant 48 h pi; format: cell-based
Procedure: as §1, §2

[9] = system: S221 (mouse-adapted DENV2 strain); assay: as above; format: cell-based
Procedure: as §1, §2

[10] = system: EDEN2 (clinical DENV2 isolate); assay: as above; format: cell-based
Procedure: as §1, §2

[11] = Dengue virus, DENV2, THP-1, THP-1 with 4G2 Ab

## CCCC(=O)O[C@H]1CN2CC[C@H](O)[C@@H]2[C@@H](O)[C@@H]1O [celgosivir]
[1]; EDEN1, MOI 0.01
  EC50: 13.8 µM
[1]; EDEN1, MOI 0.3
  EC50: 51 µM
[2]; Dengue virus, DENV2, Vero
  EC50: 8.3 µM
[2]
  EC50: 8.34 µM
[3]; EDEN2, MOI 0.3
  EC50: 2.43 µM
[3]; EDEN2, MOI 0.3 (text)
  EC50: 2.4 µM
[4]; CELADEN study regimen
  adverse event profile: higher incidence of GI effects, but not increased severity
[4]; in theory
  maximum daily dose, total dose: ≤ 600 mg
  maximum dose as a single dose: ≤ 400 mg
[5]; THP-1, THP-1 with 4G2 Ab
  EC50: 3.2 µM
[5]; THP-1 with 4G2 Ab
  EC50: 3.24 µM
[6]; [11]
  EC50: 2.1 µM
[6]; THP-1 with 4G2 Ab
  EC50: 2.14 µM
[7]; [11]
  EC50: 0.8 µM
[7]; THP-1 with 4G2 Ab
  EC50: 0.756 µM
EDEN1; EDEN1, celgosivir 50 mg/kg BID started at peak viremia (day 3)
  log reduction of viremia (VLR) from day 3 to day 6: 0.85
EDEN1; EDEN1, non-lethal model, celgosivir 50 mg/kg BID from time of infection
  viremia reduction on day 3 pi: 2.9 fold
EDEN2; EDEN2, celgosivir 50 mg/kg BID started at peak viremia (day 3)
  log reduction of viremia (VLR) from day 3 to day 6: 2.62
EDEN2; EDEN2, non-lethal model, celgosivir 50 mg/kg BID from time of infection
  viremia reduction on day 3 pi: 9.0 fold
EDEN1, EDEN2, S221
  EC50: < 0.2 µM
S221; S221, 10 mg/kg BID from time of infection
  protection from death (survival): could not protect mice from death
S221; S221, 50 mg/kg BID orally from time of infection
  protection from lethal infection (survival): completely protected mice from lethal infection
S221; S221, lethal ADE model, 10 mg/kg BID from day 0
  viremia reduction versus VC on day 3: 1.4 fold
S221; S221, lethal ADE model, 50 mg/kg BID from day 0
  lower viremia level than vehicle control on day 3 pi: 2.4 fold
[8]; HuH-7, EDEN1, MOI 0.01
  EC50: 5.96 µM
[8]; HuH-7, EDEN1, MOI 0.3
  EC50: 17.4 µM
[8]; Huh-7, HuH-7, EDEN1, MOI 0.01
  EC50: 6 µM
[8]; Huh-7, HuH-7, EDEN1, MOI 0.3
  EC50: 17.4 µM
[9]; Dengue virus, DENV2, Huh-7, HuH-7, S221, MOI 0.3
  EC50: 5.1 µM
[9]; HuH-7, S221, MOI 0.3
  EC50: 5.09 µM
[10]; Dengue virus, DENV2, Huh-7, HuH-7, EDEN2, MOI 0.3
  EC50: 0.82 µM
[10]; HuH-7, EDEN2, MOI 0.3
  EC50: 0.824 µM
